Activity calls are given as the source filed them. The rule behind the calls is not given here.
What was measured:
Butyrylcholinesterase = Butyrylcholinesterase (Equus caballus, UniProt Q9N1N9)
Description: Inhibition of equine BChE preincubated for 15 mins by Ellman's method

Acetylcholinesterase [1] = biological target: Acetylcholinesterase (Electrophorus electricus, UniProt O42275); experiment: Inhibition of electric eel AChE preincubated for 15 mins by Ellman's method
Acetylcholinesterase [2] = biological target: Acetylcholinesterase (Homo sapiens, UniProt P22303); experiment: Inhibition of human erythrocyte AChE preincubated for 15 mins by Ellman's method
Acetylcholinesterase (Homo sapiens, UniProt P22303), sequence (P22303 whole entry): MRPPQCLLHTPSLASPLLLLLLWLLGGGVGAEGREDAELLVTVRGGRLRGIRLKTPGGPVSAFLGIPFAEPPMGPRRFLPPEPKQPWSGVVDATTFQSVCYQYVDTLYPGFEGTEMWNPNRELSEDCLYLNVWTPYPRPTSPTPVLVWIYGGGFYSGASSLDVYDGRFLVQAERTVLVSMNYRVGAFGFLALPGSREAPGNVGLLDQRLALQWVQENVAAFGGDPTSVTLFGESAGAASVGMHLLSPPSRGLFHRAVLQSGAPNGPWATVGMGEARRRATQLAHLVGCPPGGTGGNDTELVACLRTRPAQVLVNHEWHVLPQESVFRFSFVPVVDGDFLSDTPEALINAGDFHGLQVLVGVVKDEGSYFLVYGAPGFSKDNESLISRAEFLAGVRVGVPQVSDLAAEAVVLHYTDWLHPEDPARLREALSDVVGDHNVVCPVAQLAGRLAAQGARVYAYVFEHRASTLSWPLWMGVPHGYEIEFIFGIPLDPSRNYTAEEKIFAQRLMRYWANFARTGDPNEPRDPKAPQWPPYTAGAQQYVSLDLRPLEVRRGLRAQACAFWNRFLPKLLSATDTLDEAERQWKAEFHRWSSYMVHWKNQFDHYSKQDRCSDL

[3] = biological target: Amyloid-beta precursor protein (Homo sapiens) (UniProt P05067); experiment: Inhibition of amyloid beta (1-42) self-mediated aggregation (unknown origin) at 20 uM after 48 hrs by thioflavin T fluorescence method
Amyloid-beta precursor protein (Homo sapiens), sequence (P05067 whole entry): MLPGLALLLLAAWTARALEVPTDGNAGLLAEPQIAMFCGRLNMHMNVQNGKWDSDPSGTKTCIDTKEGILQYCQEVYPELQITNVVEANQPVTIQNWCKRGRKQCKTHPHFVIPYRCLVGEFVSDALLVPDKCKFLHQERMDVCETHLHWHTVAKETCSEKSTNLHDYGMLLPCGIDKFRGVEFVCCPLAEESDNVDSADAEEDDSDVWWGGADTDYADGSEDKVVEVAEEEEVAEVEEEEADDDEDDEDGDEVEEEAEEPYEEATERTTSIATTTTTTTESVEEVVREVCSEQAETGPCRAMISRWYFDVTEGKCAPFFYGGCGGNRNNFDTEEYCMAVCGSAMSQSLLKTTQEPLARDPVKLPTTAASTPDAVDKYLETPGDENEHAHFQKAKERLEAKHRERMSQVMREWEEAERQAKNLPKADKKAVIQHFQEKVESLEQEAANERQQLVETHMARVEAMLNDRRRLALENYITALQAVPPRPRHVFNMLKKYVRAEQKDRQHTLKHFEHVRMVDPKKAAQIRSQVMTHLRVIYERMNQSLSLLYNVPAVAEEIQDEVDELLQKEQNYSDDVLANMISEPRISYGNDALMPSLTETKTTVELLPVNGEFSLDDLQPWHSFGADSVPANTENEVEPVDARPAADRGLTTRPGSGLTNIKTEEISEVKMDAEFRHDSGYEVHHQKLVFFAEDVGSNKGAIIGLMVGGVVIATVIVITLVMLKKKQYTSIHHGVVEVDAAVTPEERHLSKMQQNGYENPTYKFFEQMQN

[4] = biological target: Amyloid-beta precursor protein (Homo sapiens) (UniProt P05067); experiment: Disaggregation of amyloid beta (1-42) fibrils (unknown origin) at 20 uM after 24 hrs by thioflavin T fluorescence method
[5] = biological target: Amyloid-beta precursor protein (Homo sapiens) (UniProt P05067); experiment: Disaggregation of amyloid beta (1-42) fibrils (unknown origin) at 20 uM after 24 hrs by transmission electron microscopy
[6] = biological target: Amyloid-beta precursor protein (Homo sapiens) (UniProt P05067); experiment: Inhibition of amyloid beta (1-42) (unknown origin) fibril formation at 20 uM after 24 hrs by transmission electron microscopy

Acetylcholinesterase (Electrophorus electricus, UniProt O42275), sequence (O42275 whole entry): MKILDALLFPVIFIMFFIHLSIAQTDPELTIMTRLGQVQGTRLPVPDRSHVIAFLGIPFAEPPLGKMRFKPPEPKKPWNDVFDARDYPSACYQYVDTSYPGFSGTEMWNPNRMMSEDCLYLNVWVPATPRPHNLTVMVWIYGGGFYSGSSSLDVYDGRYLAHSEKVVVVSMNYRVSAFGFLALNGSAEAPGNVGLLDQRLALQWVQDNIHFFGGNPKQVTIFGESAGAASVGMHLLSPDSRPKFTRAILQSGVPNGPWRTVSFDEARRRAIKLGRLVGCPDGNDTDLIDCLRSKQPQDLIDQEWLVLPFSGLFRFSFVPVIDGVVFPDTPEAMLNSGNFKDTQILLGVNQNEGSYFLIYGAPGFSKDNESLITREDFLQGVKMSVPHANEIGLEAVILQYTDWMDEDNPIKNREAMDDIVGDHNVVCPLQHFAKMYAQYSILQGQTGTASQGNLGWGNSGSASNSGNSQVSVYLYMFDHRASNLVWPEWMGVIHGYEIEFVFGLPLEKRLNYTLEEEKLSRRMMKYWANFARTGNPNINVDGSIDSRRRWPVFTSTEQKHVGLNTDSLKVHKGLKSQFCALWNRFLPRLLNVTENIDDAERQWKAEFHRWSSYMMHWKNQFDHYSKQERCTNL
Butyrylcholinesterase, sequence (Q9N1N9 whole entry): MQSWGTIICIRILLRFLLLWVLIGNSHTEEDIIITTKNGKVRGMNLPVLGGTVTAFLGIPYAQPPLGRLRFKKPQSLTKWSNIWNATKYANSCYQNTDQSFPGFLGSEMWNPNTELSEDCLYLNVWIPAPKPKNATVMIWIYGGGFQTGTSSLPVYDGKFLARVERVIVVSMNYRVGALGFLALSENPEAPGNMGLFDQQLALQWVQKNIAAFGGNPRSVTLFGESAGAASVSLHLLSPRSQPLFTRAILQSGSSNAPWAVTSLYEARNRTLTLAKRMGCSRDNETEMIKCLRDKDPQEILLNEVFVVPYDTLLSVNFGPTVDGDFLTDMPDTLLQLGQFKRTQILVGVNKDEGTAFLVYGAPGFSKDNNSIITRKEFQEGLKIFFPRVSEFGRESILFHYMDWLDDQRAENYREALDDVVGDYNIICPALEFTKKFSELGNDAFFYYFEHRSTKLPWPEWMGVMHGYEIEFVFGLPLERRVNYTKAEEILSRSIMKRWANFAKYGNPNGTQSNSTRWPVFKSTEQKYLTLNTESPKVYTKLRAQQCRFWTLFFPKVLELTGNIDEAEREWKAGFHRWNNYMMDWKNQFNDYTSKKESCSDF

Row | SMILES | IC50 (Butyrylcholinesterase) | IC50 (Acetylcholinesterase [1]) | IC50 (Acetylcholinesterase [2]) | inhibition [3] | Activity [4] | Activity [5] | inhibition [6]
1 | CCN(CC)c1ccc(/C=C2\Cc3cc(OC)c(OCCCCCN4CCCCC4)cc3C2=O)cc1 | 2840 nM | 5730 nM | – | – | – | – | –
2 | CNc1ccc(/C=C2\Cc3cc(OC)c(OCCN4CCCCC4)cc3C2=O)cc1 | 1640 nM | 16.8 nM | 301 nM | – | – | – | –
3 | CCCN(CCC)c1ccc(/C=C2\Cc3cc(OC)c(OCCN4CCCCC4)cc3C2=O)cc1 | 1770 nM | 14.6 nM | 954 nM | – | – | – | –
4 | COc1cc2c(cc1OCCCCCN1CCCCC1)C(=O)/C(=C/c1ccc(N(C)C)cc1)C2 | 2440 nM | 1030 nM | – | – | – | – | –
5 | COc1cc2c(cc1OCCCN1CCCCC1)C(=O)/C(=C/c1ccc(N(C)C)cc1)C2 | 1460 nM | 330 nM | – | – | – | – | –
6 | CCN(C)c1ccc(/C=C2\Cc3cc(OC)c(OCCN4CCCCC4)cc3C2=O)cc1 | 1270 nM | 25.5 nM | 426 nM | 85.2% | – | – | –
7 | COc1cc2c(cc1OCCCNC1CCCCC1)C(=O)/C(=C/c1ccc(N(C)C)cc1)C2 | 1330 nM | 1540 nM | – | – | – | – | –
8 | CCCN(C)c1ccc(/C=C2\Cc3cc(OC)c(OCCN4CCCCC4)cc3C2=O)cc1 | 1420 nM | 18.6 nM | 390 nM | 83.8% | 73.8% | Active | Active
9 | COc1cc2c(cc1OCCNC1CCCCC1)C(=O)/C(=C/c1ccc(N(C)C)cc1)C2 | 363 nM | 102 nM | – | 84.3% | – | – | –
10 | COc1cc2c(cc1OCCN1CCCCC1)C(=O)/C(=C/c1ccc(N(C)C)cc1)C2 | 1490 nM | 16.5 nM | 285 nM | – | – | – | –
11 | COc1ccc(/C=C2\Cc3cc(OC)c(OCCN4CCCCC4)cc3C2=O)cc1 | 3210 nM | 14.8 nM | – | inactive | – | – | –
12 | CCN(CC)c1ccc(/C=C2\Cc3cc(OC)c(OCCCN4CCCCC4)cc3C2=O)cc1 | 2820 nM | 371 nM | – | – | – | – | –
13 | CCN(CC)c1ccc(/C=C2\Cc3cc(OC)c(OCCN4CCCCC4)cc3C2=O)cc1 | 1380 nM | 14.8 nM | 536 nM | 85.5% | 65% | Active | Active
14 | COc1cc2c(cc1OCCCCNC1CCCCC1)C(=O)/C(=C/c1ccc(N(C)C)cc1)C2 | 1130 nM | 9180 nM | – | – | – | – | –

— ChEMBL document CHEMBL3351729, “Discovery of indanone derivatives as multi-target-directed ligands against Alzheimer's disease” (Eur J Med Chem, 2014)
